Experimental data as given in PubChem BioAssay AID1259407 (Chemical Carcinogenesis Research Information System (CCRIS), 2018).
Calls of active or inactive are those of the source. The rule behind the calls is not given here.

Test system: CCRIS mutagenicity, Ames/micronucleus/aberration tests
Assay: CCRIS mutagenicity studies
[1] = Test System: AMES SALMONELLA TYPHIMURIUM, Strain/Indicator: TA98, Metabolic Activation: NONE, Method: PREINCUBATION
[2] = Test System: AMES SALMONELLA TYPHIMURIUM, Strain/Indicator: TA100, Metabolic Activation: NONE, Method: PREINCUBATION
[3] = Test System: AMES SALMONELLA TYPHIMURIUM, Strain/Indicator: TA98, Metabolic Activation: NONE, Method: STANDARD PLATE
[4] = Test System: AMES SALMONELLA TYPHIMURIUM, Strain/Indicator: TA100, Metabolic Activation: NONE, Method: STANDARD PLATE
[5] = Test System: AMES SALMONELLA TYPHIMURIUM, Strain/Indicator: TA98, Metabolic Activation: HAMSTER, LIVER, S-9, AROCLOR 1254 (10%), Method: PREINCUBATION
[6] = Test System: AMES SALMONELLA TYPHIMURIUM, Strain/Indicator: TA98, Metabolic Activation: RAT, LIVER, S-9, AROCLOR 1254 (10%), Method: PREINCUBATION
[7] = Test System: AMES SALMONELLA TYPHIMURIUM, Strain/Indicator: TA100, Metabolic Activation: HAMSTER, LIVER, S-9, AROCLOR 1254 (10%), Method: PREINCUBATION
[8] = Test System: AMES SALMONELLA TYPHIMURIUM, Strain/Indicator: TA100, Metabolic Activation: RAT, LIVER, S-9, AROCLOR 1254 (10%), Method: PREINCUBATION
[9] = Test System: AMES SALMONELLA TYPHIMURIUM, Strain/Indicator: TA1535, Metabolic Activation: HAMSTER, LIVER, S-9, AROCLOR 1254 (10%), Method: PREINCUBATION
[10] = Test System: AMES SALMONELLA TYPHIMURIUM, Strain/Indicator: TA1535, Metabolic Activation: NONE, Method: PREINCUBATION
[11] = Test System: AMES SALMONELLA TYPHIMURIUM, Strain/Indicator: TA1535, Metabolic Activation: RAT, LIVER, S-9, AROCLOR 1254 (10%), Method: PREINCUBATION

Compound: CCCCCC=O
- mutagenic call (Test System: CHINESE HAMSTER V-79, Strain/Indicator: V-79/6-THIOGUANINE (HGPRT), Metabolic Activation: NONE, Method: REPLATING): active; positive
- mutagenic call (Test System: CHINESE HAMSTER V-79, Strain/Indicator: V-79/OUABAIN (NA/K), Metabolic Activation: NONE, Method: REPLATING): active; positive
- mutagenic call (Test System: UDS HUMAN HEPATOCYTES, Strain/Indicator: THY INCORP, Metabolic Activation: NONE, Method: AUTORADIOGRAPHY): inactive; negative
- mutagenic call (Test System: UDS RAT HEPATOCYTES, Strain/Indicator: THY INCORP, Metabolic Activation: NONE, Method: AUTORADIOGRAPHY): active; positive

Compound: NC(=O)N(CCCCO)N=O
- mutagenic call (Test System: E. COLI B, Strain/Indicator: H/R30R, Metabolic Activation: NONE): active; positive
- mutagenic call (Test System: E. COLI B, Strain/Indicator: HS30R, Metabolic Activation: NONE): active; positive

Compound: Nc1cc2c3c(ccc2c2ccccc12)[C@H](O)[C@@H](O)C=C3
- mutagenic call [1]: inactive; negative
- mutagenic call (Test System: AMES SALMONELLA TYPHIMURIUM, Strain/Indicator: TA98, Metabolic Activation: RAT, LIVER, S-9, AROCLOR 1254, Method: PREINCUBATION): inactive; negative
- mutagenic call [2]: active; positive
- mutagenic call (Test System: AMES SALMONELLA TYPHIMURIUM, Strain/Indicator: TA100, Metabolic Activation: RAT, LIVER, S-9, AROCLOR 1254, Method: PREINCUBATION): active; positive
- mutagenic call (Test System: CHINESE HAMSTER OVARY, Strain/Indicator: CHO-K1-BH4 (HGPRT)/6-THIOGUANINE, Metabolic Activation: NONE, Method: STANDARD PLATE): inactive; negative
- mutagenic call (Test System: CHINESE HAMSTER OVARY, Strain/Indicator: CHO-K1-BH4 (HGPRT)/6-THIOGUANINE, Metabolic Activation: RAT, LIVER, S-9, AROCLOR 1254, Method: STANDARD PLATE): active; positive
- mutagenic call (Test System: CHINESE HAMSTER OVARY, Strain/Indicator: CHO-UV5 (HGPRT)/6-THIOGUANINE, Metabolic Activation: NONE, Method: STANDARD PLATE): inactive; negative
- mutagenic call (Test System: CHINESE HAMSTER OVARY, Strain/Indicator: CHO-UV5 (HGPRT)/6-THIOGUANINE, Metabolic Activation: RAT, LIVER, S-9, AROCLOR 1254, Method: STANDARD PLATE): active; positive

Compound: [O-][N+](=Nc1ccc(Cl)c(Cl)c1)c1ccc(Cl)c(Cl)c1
- mutagenic call (Test System: AMES SALMONELLA TYPHIMURIUM, Strain/Indicator: TA97, Metabolic Activation: NONE, Method: STANDARD PLATE): inactive; negative
- mutagenic call (Test System: AMES SALMONELLA TYPHIMURIUM, Strain/Indicator: TA97, Metabolic Activation: RAT, LIVER, S-9, AROCLOR 1254, Method: STANDARD PLATE): inactive; negative
- mutagenic call [3]: inactive; negative
- mutagenic call (Test System: AMES SALMONELLA TYPHIMURIUM, Strain/Indicator: TA98, Metabolic Activation: RAT, LIVER, S-9, AROCLOR 1254, Method: STANDARD PLATE): inactive; negative
- mutagenic call [4]: inactive; negative
- mutagenic call (Test System: AMES SALMONELLA TYPHIMURIUM, Strain/Indicator: TA100, Metabolic Activation: RAT, LIVER, S-9, AROCLOR 1254, Method: STANDARD PLATE): inactive; negative
- mutagenic call (Test System: AMES SALMONELLA TYPHIMURIUM, Strain/Indicator: TA104, Metabolic Activation: NONE, Method: STANDARD PLATE): inactive; negative
- mutagenic call (Test System: AMES SALMONELLA TYPHIMURIUM, Strain/Indicator: TA104, Metabolic Activation: RAT, LIVER, S-9, AROCLOR 1254, Method: STANDARD PLATE): inactive; negative
- mutagenic call (Test System: CHINESE HAMSTER OVARY, Strain/Indicator: CHO-K1-BH4 (HGPRT), Metabolic Activation: NONE): inactive; negative
- mutagenic call (Test System: CHINESE HAMSTER OVARY, Strain/Indicator: CHO-K1-BH4 (HGPRT), Metabolic Activation: RAT, LIVER, S-9, AROCLOR 1254): inactive; negative

Compound: c1ccc(P(c2ccccc2)c2ccccc2)cc1
- mutagenic call [5]: inactive; negative
- mutagenic call [1]: inactive; negative
- mutagenic call [6]: inactive; negative
- mutagenic call [7]: inactive; negative
- mutagenic call [2]: inactive; negative
- mutagenic call [8]: inactive; negative
- mutagenic call [9]: inactive; negative
- mutagenic call [10]: inactive; negative
- mutagenic call [11]: inactive; negative
- mutagenic call (Test System: AMES SALMONELLA TYPHIMURIUM, Strain/Indicator: TA1537, Metabolic Activation: HAMSTER, LIVER, S-9, AROCLOR 1254 (10%), Method: PREINCUBATION): inactive; negative
- mutagenic call (Test System: AMES SALMONELLA TYPHIMURIUM, Strain/Indicator: TA1537, Metabolic Activation: NONE, Method: PREINCUBATION): inactive; negative
- mutagenic call (Test System: AMES SALMONELLA TYPHIMURIUM, Strain/Indicator: TA1537, Metabolic Activation: RAT, LIVER, S-9, AROCLOR 1254 (10%), Method: PREINCUBATION): inactive; negative

Compound: c1ccc2n[nH]nc2c1
- mutagenic call (Test System: AMES SALMONELLA TYPHIMURIUM, Strain/Indicator: TA97, Metabolic Activation: HAMSTER, LIVER, S-9, AROCLOR 1254 (10%), Method: PREINCUBATION): inactive; negative
- mutagenic call (Test System: AMES SALMONELLA TYPHIMURIUM, Strain/Indicator: TA97, Metabolic Activation: NONE, Method: PREINCUBATION): inactive; negative
- mutagenic call (Test System: AMES SALMONELLA TYPHIMURIUM, Strain/Indicator: TA97, Metabolic Activation: RAT, LIVER, S-9, AROCLOR 1254 (10%), Method: PREINCUBATION): inactive; negative
- mutagenic call [5]: inactive; negative
- mutagenic call [1]: inactive; negative
- mutagenic call [6]: inactive; negative
- mutagenic call [7]: inactive; negative
- mutagenic call [2]: inactive; negative
- mutagenic call [8]: inactive; negative
- mutagenic call [9]: active; positive
- mutagenic call [10]: inactive; negative
- mutagenic call [11]: active; positive
- mutagenic call (Test System: E. COLI, Strain/Indicator: WP2 UVRA, Metabolic Activation: MOUSE, LIVER, S-9, AROCLOR 1254, Method: STANDARD PLATE): inactive; negative

Compound: BrCc1c2ccccc2cc2ccc3ccccc3c12
- mutagenic call [3]: active; positive
- mutagenic call [4]: active; positive
